Data from US6770741B1, “Brandykinin antagonist peptides” (Scios Inc., priority 1991, dated 2004).
Several values for one entry are separate records, joined by “and”; a condition that tells them apart may be missing. Equal entries are not always repeated. Residues, ends and D or L forms follow the SMILES beside them.

Tests used:
[1] = molecular target: T1, bradykinin receptors on intestinal (ileal longitudinal) smooth muscle (Cavia porcellus, UniProt O70526); test: Bradykinin antagonist activity on guinea pig ileal longitudinal smooth muscle (Schild analysis); type: cell-based; settings: antagonism of bradykinin-induced contraction, 5 min antagonist exposure; for Kb: read-out: pA2 (converted)
T1 construct: The longitudinal muscle was separated from the underlying circular muscle; from tissue; host or cells: guinea pig ileal longitudinal smooth muscle strips
T1 sequence (O70526 1-372): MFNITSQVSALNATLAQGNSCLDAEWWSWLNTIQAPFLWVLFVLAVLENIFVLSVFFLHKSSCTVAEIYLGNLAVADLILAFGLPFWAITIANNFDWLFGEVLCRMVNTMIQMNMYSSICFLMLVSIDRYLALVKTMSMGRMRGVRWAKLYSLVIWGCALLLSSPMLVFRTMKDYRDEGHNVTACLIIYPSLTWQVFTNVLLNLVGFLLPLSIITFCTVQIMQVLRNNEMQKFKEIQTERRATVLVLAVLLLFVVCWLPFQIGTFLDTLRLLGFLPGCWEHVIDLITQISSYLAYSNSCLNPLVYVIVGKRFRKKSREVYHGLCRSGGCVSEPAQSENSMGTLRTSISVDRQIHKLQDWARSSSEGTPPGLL
Method: Determination of Bradykinin Antagonist Activity
Guinea pig intestine was removed and placed in a Petri dish containing Tyrodes solution and cut into 3-4 cm segments. The longitudinal muscle was separated from the underlying circular muscle using a cotton applicator (Paton and Zar, J. Physiol., (1968), 194:13. Muscle strips were connected to isometric force-displacement transducers (Grass or Gould) coupled to a physiograph and placed in tissue baths containing Tyrode's solution at 37° C. Each preparation was suspended under a resting tension of 2 g.
After equilibration of the tissues, appropriate volumes of bradykinin solutions were cumulatively added to the 10 mL tissue baths to increase the concentration of bradykinin in the bath step-by-step without washing out after each single dose. Higher concentrations were added only after the preceding contraction had reached a steady value. […] Antagonism of bradykinin responses in the presence of antagonist were determined by repeating the cumulative addition procedure for bradykinin after the tissue has been exposed to the antagonist for 5 minutes. Three or four different concentrations of antagonist are studied sequentially in the same preparations. Responses were expressed as a percentage of the maximum contraction elicited by bradykinin in the absence of antagonist. pA2 values were calculated by Schild analysis.

bradykinin receptor = molecular target: T2, bradykinin receptor (Cavia porcellus, UniProt O70526); test: 3H-Bradykinin binding assay, guinea pig terminal ileum homogenate; settings: competition with 3H-bradykinin (~0.3 nM), guinea pig terminal ileum membranes, 90 min ambient temperature
T2 construct: from tissue; host or cells: guinea pig terminal ileum, washed membrane homogenate
T2 sequence (O70526 1-372): T1 sequence (O70526 1-372)
Method: Bradykinin Binding Procedure
Binding of ^3H-Bradykinin was preformed using the method of D. C. Manning, R. Vavrek, J. M. Stewart, and S. H. Synder, J. Pharmacol. Exp. Ther., (1986), 237, 504. The tissues used in the binding assay were terminal ileum from male Hartley guinea pigs (150-350 g). After dissection, tissues were placed in 20 vol of ice-cold buffer A (25 mM TES containing 0.2 g/L of 1,10-phenanthroline adjusted to pH 6.8 with ammonium hydroxide) and homogenized using a Ploytron Tissumizer at setting 6 for 15 sec. The homogenate was centrifuged at 50,000 x g for 10 min, the supernatant discarded, and the pellet resuspended in ice-cold buffer A by homogenization with the Polytron. Each tissue was homogenized and centrifuged three times. The final pellet was resuspended in buffer A containing bovine serum albumin (1 g/L) and Bacitracin (0.14 g/L) to a final volume of 170 mL/g of the original tissue weight. The binding assay consisted of 1 mL in 12×75 mm polypropylene tubes: 50 uL ^3H-bradykinin (20,000 dpm, ˜0.3 nM in the final assay volume), […] displacing drug in buffer A, and 750 uL tissue homogenate. Each tray contained tubes, to which no drug was added to measure maximum binding and tubes to which bradykinin (1 uM final concentration) had been added, to measure […]. Specific binding accounted for 96-98% total binding. Tubes were incubated for 90 min at ambient temperature. The assays were terminated by filtration over Whatman GF/B glass fiber filters that had been pretreated for 2 hours with polyethyleneimine (2 g/L) using a Brandel Tissue Harvester, followed by washing with 4×1 mL aliquots of ice-cold 50 mM Tris, pH 7.4. Filters were dissolved in Ready-Safe Fluor (Beckman) for at least 90 min before quantitation by liquid scintillation spectrometry. Kd values were determined using saturation binding and analysis by EBDA (G. A. MacPherson, J. Pharmacol. Methods, (1985), 213), followed by LIGAND (P. J. Munson, D. Rodbard, Anal. Biochem., (1980), 220). Ki values were determined using competitive analysis followed by EBDA and LIGAND. The following test results were obtained.

[2] = anesthetized rat, intra-aortic vs intravenous administration; cited from earlier work
[3] = cited from earlier work

Row | pA2 [1] | Molecule | Kb [1] | Ki (bradykinin receptor) | destruction on a single passage through the pulmonary circulation [2] | half life in the systemic circulation [3]
1 | 5.9 | D-Arg-Arg-Pro-4Hyp-Gly-Phe-Ser-D-Phe-Phe-Arg [reference compound] |  |  |  | 
2 |  | CCCO[C@@H]1C[C@H](C(=O)N2Cc3ccccc3C[C@H]2C(=O)N[C@@H](CCCNC(=N)N)C(=O)O)N(C(=O)[C@H](CO)NC(=O)[C@H](Cc2cccs2)NC(=O)CNC(=O)[C@@H]2C[C@@H](O)CN2C(=O)[C@@H]2CCCN2C(=O)[C@H](CCCNC(=N)N)NC(=O)[C@H](N)CCCNC(=N)N)C1 [D-Arg-Arg-Pro-4Hyp-Gly-Thi-Ser-(D-4-hydroxyproline cis propyl ether)-Tic-Arg] | 8910 nM and 3160 nM | 172 ± 45 nM |  | 
3 |  | CO[C@H]1C[C@H](C(=O)N2Cc3ccccc3C[C@H]2C(=O)N[C@@H](CCCNC(=N)N)C(=O)O)N(C(=O)[C@H](CO)NC(=O)[C@H](Cc2cccs2)NC(=O)CNC(=O)[C@@H]2C[C@@H](O)CN2C(=O)[C@@H]2CCCN2C(=O)[C@H](CCCNC(=N)N)NC(=O)[C@H](N)CCCNC(=N)N)C1 [D-Arg-Arg-Pro-4Hyp-Gly-Thi-Ser-(D-4-hydroxyproline trans methyl ether)-Tic-Arg] | 186 nM | 1.54 nM |  | 
4 |  | CCCO[C@H]1C[C@H](C(=O)N2Cc3ccccc3C[C@H]2C(=O)N[C@@H](CCCNC(=N)N)C(=O)O)N(C(=O)[C@H](CO)NC(=O)[C@H](Cc2cccs2)NC(=O)CNC(=O)[C@@H]2C[C@@H](O)CN2C(=O)[C@@H]2CCCN2C(=O)[C@H](CCCNC(=N)N)NC(=O)[C@H](N)CCCNC(=N)N)C1 [D-Arg-Arg-Pro-4Hyp-Gly-Thi-Ser-(D-4-Hydroxyproline trans propyl ether)-Tic-Arg] | 24.5 nM | 0.59 nM |  | 
5 |  | NC(N)=NCCC[C@H](NC(=O)[C@H](Cc1ccccc1)NC(=O)[C@@H]1CCCN1C(=O)[C@H](CO)NC(=O)[C@H](Cc1ccccc1)NC(=O)CNC(=O)[C@@H]1CCCN1C(=O)[C@@H]1CCCN1C(=O)[C@@H](N)CCCN=C(N)N)C(=O)O [bradykinin, Arg Pro Pro Gly Phe Ser Pro Phe Arg] (H-RPPGFSPFR-OH) |  |  | 98-99% | less than 30 seconds
6 |  | CO[C@@H]1C[C@H](C(=O)N2Cc3ccccc3C[C@H]2C(=O)N[C@@H](CCCNC(=N)N)C(=O)O)N(C(=O)[C@H](CO)NC(=O)[C@H](Cc2cccs2)NC(=O)CNC(=O)[C@@H]2C[C@@H](O)CN2C(=O)[C@@H]2CCCN2C(=O)[C@H](CCCNC(=N)N)NC(=O)[C@H](N)CCCNC(=N)N)C1 [D-Arg-Arg-Pro-4Hyp-Gly-Thi-Ser-(D-4-hydroxyproline cis methyl ether)-Tic-Arg] | 5750 nM and 6310 nM | 164 ± 20 nM |  | 
